Results from paper PMC2758050 (Bioorganic & medicinal chemistry letters, 2009).
Like-named read-outs stand apart in the source and are kept apart here.

Experiments:
[1] = tested on: hMC1R; conditions: cited from earlier work; for EC50: read-out: EC50 hMC1R, agonist
[2] = molecular target: mMC1R (Mus musculus, UniProt Q01727); test: Agonist activity of N-capped tripeptides on mouse MC1 receptor
[3] = molecular target: mMC5R (Mus musculus, UniProt P41149); test: Agonist activity of N-capped tripeptides on mouse MC5 receptor
[4] = tested on: DNA damage resulting from exposure to solar UV radiation; conditions: compared with α-MSH; ref 4a; cited from earlier work
[5] = molecular target: mMC4R (Mus musculus, UniProt P56450); test: Agonist activity of N-capped tripeptides on mouse MC4 receptor
[6] = tested on: hMC3R; conditions: ref 3b; cited from earlier work
[7] = tested on: hMC4R; conditions: ref 3b; cited from earlier work

Chain of mMC1R (Q01727 whole entry): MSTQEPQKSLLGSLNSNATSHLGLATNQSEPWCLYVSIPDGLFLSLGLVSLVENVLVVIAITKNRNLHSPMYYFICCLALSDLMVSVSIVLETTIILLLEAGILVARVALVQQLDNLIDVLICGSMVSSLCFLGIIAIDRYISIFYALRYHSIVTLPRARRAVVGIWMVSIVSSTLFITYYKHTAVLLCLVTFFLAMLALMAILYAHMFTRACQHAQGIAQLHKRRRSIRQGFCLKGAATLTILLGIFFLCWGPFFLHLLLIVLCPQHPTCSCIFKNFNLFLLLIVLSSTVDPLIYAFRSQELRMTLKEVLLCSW
Chain of mMC4R (P56450 whole entry): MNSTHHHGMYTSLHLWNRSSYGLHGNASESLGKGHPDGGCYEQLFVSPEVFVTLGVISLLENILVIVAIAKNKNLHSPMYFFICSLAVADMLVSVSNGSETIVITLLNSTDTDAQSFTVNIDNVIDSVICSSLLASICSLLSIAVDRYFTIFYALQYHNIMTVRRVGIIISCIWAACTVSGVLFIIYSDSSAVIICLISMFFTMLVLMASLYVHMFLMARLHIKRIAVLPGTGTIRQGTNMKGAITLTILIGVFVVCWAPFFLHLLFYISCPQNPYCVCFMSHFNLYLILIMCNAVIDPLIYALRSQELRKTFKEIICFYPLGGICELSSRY
Chain of mMC5R (P41149 whole entry): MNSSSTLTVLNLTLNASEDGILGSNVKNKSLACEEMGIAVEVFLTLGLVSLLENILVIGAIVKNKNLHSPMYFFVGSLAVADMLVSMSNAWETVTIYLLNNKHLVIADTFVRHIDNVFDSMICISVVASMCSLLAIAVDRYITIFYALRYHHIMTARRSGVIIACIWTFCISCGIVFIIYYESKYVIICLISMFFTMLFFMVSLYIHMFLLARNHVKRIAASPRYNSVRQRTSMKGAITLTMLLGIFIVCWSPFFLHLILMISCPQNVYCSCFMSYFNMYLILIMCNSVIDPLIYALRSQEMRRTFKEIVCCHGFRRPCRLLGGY

N=C(N)NCCC[C@H](NC(=O)[C@@H](Cc1ccccc1)NC(=O)[C@H](Cc1c[nH]cn1)NC(=O)CCCc1ccccc1)C(=O)N[C@@H](Cc1c[nH]c2ccccc12)C(N)=O [Compound 1, Ph(CH2)3CO-His-D-Phe-Arg-Trp-NH2]
EC50 ([1]; ref 3a): 0.01 nM | EC50 [2]: 1.6 ± 0.29 nM | EC50 [3]: 0.33 ± 0.14 nM | potency in repairing DNA damage resulting from solar UV radiation [4]: more potent than α-MSH | EC50 [5]: 0.54 ± 0.19 nM

N=C(N)NCCC[C@H](NC(=O)[C@@H](Cc1ccccc1)NC(=O)[C@H](Cc1c[nH]cn1)NC(=O)CCCc1ccccc1)C(N)=O [Compound 2, Ph(CH2)3CO-His-D-Phe-Arg-NH2]
type of agonism at hMC3R [6]: weak partial agonism | EC50 ([1]; ref 3b): 5 nM | type of agonism at hMC1R ([1]; ref 3b): full hMC1 agonist | loss in potency compared to 1 at mMC1R ([2]; vs tetrapeptide 1): 590 fold | type of agonism at hMC4R [7]: weak partial agonism
